Some results are limits rather than exact numbers.

One experiment deals with PRC2 complex (EZH2 Y641F/EED/SUZ12/RbAp48/AEBP2) (Homo sapiens (Human), UniProt Q15910, Y641F). Description: Activity of a compound to PRC2 complex (EZH2 Y641F), HTRF.
PRC2 complex (EZH2 Y641F/EED/SUZ12/RbAp48/AEBP2), sequence (Q15910 whole entry Y641F): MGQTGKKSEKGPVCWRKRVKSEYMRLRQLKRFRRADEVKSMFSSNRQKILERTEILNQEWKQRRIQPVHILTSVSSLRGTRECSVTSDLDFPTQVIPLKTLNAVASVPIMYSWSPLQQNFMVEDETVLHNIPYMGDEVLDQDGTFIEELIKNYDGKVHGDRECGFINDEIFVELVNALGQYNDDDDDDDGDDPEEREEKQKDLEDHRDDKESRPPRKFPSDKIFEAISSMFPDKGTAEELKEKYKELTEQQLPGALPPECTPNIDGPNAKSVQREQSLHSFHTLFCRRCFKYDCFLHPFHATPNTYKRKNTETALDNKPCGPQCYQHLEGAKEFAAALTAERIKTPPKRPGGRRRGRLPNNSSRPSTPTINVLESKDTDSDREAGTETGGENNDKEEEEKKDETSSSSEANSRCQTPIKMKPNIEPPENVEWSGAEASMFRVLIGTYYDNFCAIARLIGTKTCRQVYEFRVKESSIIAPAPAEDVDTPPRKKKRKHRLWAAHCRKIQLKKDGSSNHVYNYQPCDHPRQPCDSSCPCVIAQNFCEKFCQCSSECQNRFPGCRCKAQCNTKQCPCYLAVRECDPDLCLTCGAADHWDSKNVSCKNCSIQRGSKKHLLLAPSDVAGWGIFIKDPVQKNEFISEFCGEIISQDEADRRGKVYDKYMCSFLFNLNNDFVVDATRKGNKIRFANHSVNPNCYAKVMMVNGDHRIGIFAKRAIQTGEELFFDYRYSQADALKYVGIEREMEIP
PRC2 complex (EZH2 Y641F/EED/SUZ12/RbAp48/AEBP2), sequence (O75530 whole entry partner): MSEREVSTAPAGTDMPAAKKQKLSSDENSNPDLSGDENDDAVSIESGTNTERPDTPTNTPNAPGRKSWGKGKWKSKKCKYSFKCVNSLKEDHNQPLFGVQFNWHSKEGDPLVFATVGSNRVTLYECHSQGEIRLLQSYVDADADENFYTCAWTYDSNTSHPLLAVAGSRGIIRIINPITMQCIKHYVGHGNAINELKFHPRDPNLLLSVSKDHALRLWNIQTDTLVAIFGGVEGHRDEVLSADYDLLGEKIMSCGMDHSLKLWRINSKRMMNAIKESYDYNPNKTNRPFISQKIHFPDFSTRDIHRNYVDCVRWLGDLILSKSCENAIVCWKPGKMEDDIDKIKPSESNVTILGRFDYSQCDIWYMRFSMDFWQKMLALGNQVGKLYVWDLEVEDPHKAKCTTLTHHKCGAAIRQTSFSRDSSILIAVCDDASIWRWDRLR
PRC2 complex (EZH2 Y641F/EED/SUZ12/RbAp48/AEBP2), sequence (Q15022 whole entry partner): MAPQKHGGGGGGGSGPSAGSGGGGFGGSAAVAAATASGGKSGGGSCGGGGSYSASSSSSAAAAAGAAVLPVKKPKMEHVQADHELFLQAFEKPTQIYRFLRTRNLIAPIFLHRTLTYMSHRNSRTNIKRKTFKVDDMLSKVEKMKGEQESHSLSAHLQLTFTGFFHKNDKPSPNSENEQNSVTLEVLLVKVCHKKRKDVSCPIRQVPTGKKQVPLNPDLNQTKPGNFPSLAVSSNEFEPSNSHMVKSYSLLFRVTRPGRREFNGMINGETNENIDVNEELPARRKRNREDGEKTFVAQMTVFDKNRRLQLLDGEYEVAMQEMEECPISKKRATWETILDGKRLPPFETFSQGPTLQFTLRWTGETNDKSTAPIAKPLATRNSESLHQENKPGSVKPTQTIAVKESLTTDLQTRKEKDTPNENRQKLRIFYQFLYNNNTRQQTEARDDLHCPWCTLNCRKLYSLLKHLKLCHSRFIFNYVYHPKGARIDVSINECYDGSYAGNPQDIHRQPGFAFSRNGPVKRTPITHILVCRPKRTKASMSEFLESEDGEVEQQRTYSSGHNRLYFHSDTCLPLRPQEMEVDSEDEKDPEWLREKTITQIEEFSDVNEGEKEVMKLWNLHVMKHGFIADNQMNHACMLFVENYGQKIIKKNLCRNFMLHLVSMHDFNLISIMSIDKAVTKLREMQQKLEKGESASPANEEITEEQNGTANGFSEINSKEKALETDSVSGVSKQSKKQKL
PRC2 complex (EZH2 Y641F/EED/SUZ12/RbAp48/AEBP2), sequence (Q09028 whole entry partner): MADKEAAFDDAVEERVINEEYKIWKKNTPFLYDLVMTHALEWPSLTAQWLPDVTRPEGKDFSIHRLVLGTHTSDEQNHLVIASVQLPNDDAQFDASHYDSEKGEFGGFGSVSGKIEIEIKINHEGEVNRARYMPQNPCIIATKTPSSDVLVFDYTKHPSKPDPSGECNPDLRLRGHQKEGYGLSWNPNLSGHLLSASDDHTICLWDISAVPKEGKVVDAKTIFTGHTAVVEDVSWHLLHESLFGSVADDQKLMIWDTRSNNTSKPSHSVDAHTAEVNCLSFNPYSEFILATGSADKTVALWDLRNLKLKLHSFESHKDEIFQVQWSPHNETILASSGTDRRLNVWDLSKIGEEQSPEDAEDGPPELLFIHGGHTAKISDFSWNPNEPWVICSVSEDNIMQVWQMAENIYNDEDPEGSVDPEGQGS
PRC2 complex (EZH2 Y641F/EED/SUZ12/RbAp48/AEBP2), sequence (Q6ZN18 whole entry partner): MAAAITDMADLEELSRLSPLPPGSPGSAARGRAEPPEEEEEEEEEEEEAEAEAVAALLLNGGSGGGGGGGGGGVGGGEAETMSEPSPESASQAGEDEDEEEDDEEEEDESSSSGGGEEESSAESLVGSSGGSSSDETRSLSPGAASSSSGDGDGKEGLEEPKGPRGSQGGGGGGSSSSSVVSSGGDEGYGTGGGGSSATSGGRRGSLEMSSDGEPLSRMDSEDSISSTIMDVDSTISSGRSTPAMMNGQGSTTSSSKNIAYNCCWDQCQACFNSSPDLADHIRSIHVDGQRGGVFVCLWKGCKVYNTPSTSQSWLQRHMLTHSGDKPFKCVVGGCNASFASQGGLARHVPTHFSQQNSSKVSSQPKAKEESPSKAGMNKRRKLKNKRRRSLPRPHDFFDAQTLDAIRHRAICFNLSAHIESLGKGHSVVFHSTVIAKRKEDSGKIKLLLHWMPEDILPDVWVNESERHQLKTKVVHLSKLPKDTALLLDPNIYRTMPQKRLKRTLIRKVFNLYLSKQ
Settings: not given
The molecule `COc1cc(-c2cc3cc(C(=O)NCc4c(C)cc(C)[nH]c4=O)c(C)c(C(C)N4CCOCC4)n3c2)cc(OC)c1OC` (centres unmarked) [Example 37, N-((4,6-dimethyl-2-oxo-1,2-dihydropyridin-3-yl)methyl)-6-methyl-5-(1-morpholinylethyl)-2-(3,4,5-trimethoxyphenyl)indolizine-7-carboxamide] gave an IC50 of under 100 nM.
Molecule `Cc1cc(C)c(CNC(=O)c2cc3cc(-c4cnn(C)c4)cn3c(C(C)N3CCOCC3)c2C)c(=O)[nH]1` (centres unmarked) [Example 42, N-((4,6-dimethyl-2-oxo-1,2-dihydropyridin-3-yl)methyl)-6-methyl-2-(1-methyl-1H-pyrazol-4-yl)-5-(1-morpholinylethyl)indolizine-7-carboxamide] yielded an IC50 of under 100 nM.
Consider `Cc1cc(C)c(CNC(=O)c2cc3cc(-c4cccnc4)cn3c(C(C)N3CCC(N(C)C)CC3)c2C)c(=O)[nH]1` (centres unmarked) [Example 49, N-((4,6-dimethyl-2-oxo-1,2-dihydropyridin-3-yl)methyl)-5-(1-(4-(dimethylamino)piperidin-1-yl)ethyl)-6-methyl-2-(pyridin-3-yl)indolizine-7-carboxamide], for which the IC50 was under 100 nM.
The molecule `Cc1cc(C)c(CNC(=O)c2cc3cc(-c4cn(C)cn4)cn3c(C(C)N3CCOCC3)c2C)c(=O)[nH]1` (centres unmarked) [Example 52, N-((4,6-dimethyl-2-oxo-1,2-dihydropyridin-3-yl)methyl)-6-methyl-2-(1-methyl-1H-imidazole-4-yl)-5-(1-morpholineylethyl)indolizine-7-carboxamide] came in with an IC50 of 100 to 1000 nM.

Staying with this experiment, now noted: read-out: IC50 (EZH2_Y641F); EZH2 Y641F PRC2 complex, HTRF; class symbols.
Regarding `Cc1cc(C)c(CNC(=O)c2cc3cccn3c(C(C)OCc3ccncc3)c2C)c(=O)[nH]1` (centres unmarked) [Example 16, N-((4,6-dimethyl-2-oxo-1,2-dihydropyridin-3-yl)methyl)-6-methyl-5-(1-(pyridine-4-ylmethoxy)ethyl)indolizine-7-carboxamide], the IC50 lay within 100 to 1000 nM.
On the same count and under the same terms, the same measure for `Cc1cc(C)c(CNC(=O)c2cc3cccn3c(C(C)OCc3cccs3)c2C)c(=O)[nH]1` (centres unmarked) [Example 17, N-((4,6-dimethyl-2-oxo-1,2-dihydropyridin-3-yl)methyl)-6-methyl-5-(1-(thiophene-2-ylmethoxy)ethyl)indolizine-7-carboxamide]: under 100 nM; for `Cc1cc(C)c(CNC(=O)c2cc3cccn3c(C(C)OCc3ccnn3C)c2C)c(=O)[nH]1` (centres unmarked) [Example 21]: under 100 nM.
Turning to `Cc1cc(C)c(CNC(=O)c2cc3cccn3c(C(C)Oc3ccc(N(C)C)cc3)c2C)c(=O)[nH]1` (centres unmarked) [Example 22], the half-maximal inhibitory concentration (IC50) is 1000 to 10000 nM.
Same read-out and setting: the same measure for `Cc1cc(C)c(CNC(=O)c2cc3cccn3c(C(O)c3ccc(Br)cc3)c2C)c(=O)[nH]1` (centres unmarked) [Example 23, 5-((4-bromophenyl)(hydroxy)methyl)-N-((4,6-dimethyl-2-oxo-1,2-dihydropyridin-3-yl)methyl)-6-methylindolizine-7-carboxamide]: 100 to 1000 nM.
Still for that read-out and setting: with `COC(c1ccc(Br)cc1)c1c(C)c(C(=O)NCc2c(C)cc(C)[nH]c2=O)cc2cccn12` (centres unmarked) [Example 24, 5-((4-bromophenyl)(methoxy)methyl)-N-((4,6-dimethyl-2-oxo-1,2-dihydropyridin-3-yl)methyl)-6-methylindolizine-7-carboxamide] the figure was over 10000 nM; with `Cc1cc(C)c(CNC(=O)c2cc3c(Cl)ccn3c(C(C)N3CCOCC3)c2C)c(=O)[nH]1` (centres unmarked) [Example 27, 1-chloro-N-((4,6-dimethyl-2-oxo-1,2-dihydropyridin-3-yl)methyl)-6-methyl-5-(1-morphinolinylethyl)indolizine-7-carboxamide], under 100 nM; with `Cc1cc(C)c(CNC(=O)c2cc3cc(Br)cn3c(C(C)Oc3ccc(N(C)C)cc3)c2C)c(=O)[nH]1` (centres unmarked) [Example 30], under 100 nM.
Consider `Cc1cc(C)c(CNC(=O)c2cc3cc(-c4ccc5c(c4)OCO5)cn3c(C(C)N3CCOCC3)c2C)c(=O)[nH]1` (centres unmarked) [Example 31, 2-(benzo[d][1,3]dioxol-5-yl)-N-((4,6-dimethyl-2-oxo-1,2-dihydropyridine-3-yl)methyl)-6-methyl-5-(1-morphinolinylethyl)indolizin-7-carboxamide], for which the IC50 lay in the range of 100 to 1000 nM.
Consider `Cc1cc(C)c(CNC(=O)c2cc3cc(-c4ccc(N5CCOCC5)cc4)cn3c(C(C)N3CCOCC3)c2C)c(=O)[nH]1` (centres unmarked) [Example 32, N-((4,6-dimethyl-2-oxo-1,2-dihydropyridin-3-yl)methyl)-6-methyl-5-(1-morphinolinylethyl)-2-(4-morphinolinylphenyl)indolizine-7-carboxamide], for which the IC50 is under 100 nM.
As for `Cc1cc(C)c(CNC(=O)c2cc3cc(-c4cccnc4)cn3c(C(C)N3CCOCC3)c2C)c(=O)[nH]1` (centres unmarked) [Example 33, N-((4,6-dimethyl-2-oxo-1,2-dihydropyridin-3-yl)methyl)-6-methyl-5-(1-morphinolinylethyl)-2-(pyridin-3-yl)indolizine-7-carboxamide], the IC50 is under 100 nM.
Consider `Cc1cc(C)c(CNC(=O)c2cc3cc(-c4cccc(N5CCOCC5)c4)cn3c(C(C)N3CCOCC3)c2C)c(=O)[nH]1` (centres unmarked) [Example 36, N-((4,6-dimethyl-2-oxo-1,2-dihydropyridin-3-yl)methyl)-6-methyl-5-(1-morphinolinylethyl)-2-(3-morphinolinylphenyl)indolizine-7-carboxamide], for which the IC50 is under 100 nM.
Turning to `COc1ccc(-c2cc3cc(C(=O)NCc4c(C)cc(C)[nH]c4=O)c(C)c(C(C)N4CCOCC4)n3c2)c(OC)c1` (centres unmarked) [Example 38, 2-(2,4-dimethoxyphenyl)-N-((4,6-dimethyl-2-oxo-1,2-dihydropyridin-3-yl)methyl)-6-methyl-5-(1-morphinolinylethyl)indolizine-7-carboxamide], the IC50 was under 100 nM.
Consider `Cc1cc(C)c(CNC(=O)c2cc3cc(-c4ccc(CN5CCOCC5)cc4)cn3c(C(C)N3CCOCC3)c2C)c(=O)[nH]1` (centres unmarked) [Example 39, N-((4,6-dimethyl-2-oxo-1,2-dihydropyridin-3-yl)methyl)-6-methyl-5-(1-morphinolinylethyl)-2-(4-(morphinolinylmethyl)phenyl)indolizine-7-carboxamide], for which the half-maximal inhibitory concentration (IC50) was under 100 nM.
As to `Cc1cc(C)c(CNC(=O)c2cc3cc(-c4ccnn4C)cn3c(C(C)N3CCOCC3)c2C)c(=O)[nH]1` (centres unmarked) [Example 41, N-((4,6-dimethyl-2-oxo-1,2-dihydropyridin-3-yl)methyl)-6-methyl-2-(1-methyl-1H-pyrazol-5-yl)-5-(1-morpholineylethyl)indolizine-7-carboxamide], the IC50 was under 100 nM.
Consider `COc1ccc(-c2cc3cc(C(=O)NCc4c(C)cc(C)[nH]c4=O)c(C)c(C(C)N4CCOCC4)n3c2)c(F)c1` (centres unmarked) [Example 43, N-((4,6-dimethyl-2-oxo-1,2-dihydropyridin-3-yl)methyl)-2-(2-fluoro-4-methoxyphenyl)-6-methyl-5-(1-morphinolinylethyl)indolizine-7-carboxamide], for which the IC50 was under 100 nM.
For the molecule `Cc1cc(C)c(CNC(=O)c2cc3cc(-c4cnn(C5CCNCC5)c4)cn3c(C(C)N3CCOCC3)c2C)c(=O)[nH]1` (centres unmarked) [Example 44, N-((4,6-dimethyl-2-oxo-1,2-dihydropyridin-3-yl)methyl)-6-methyl-5-(1-morphinolinylethyl)-2-(1-(piperidin-4-yl)-1H-pyrazol-4-yl)indolizine-7-carboxamide], the IC50 is under 100 nM.
`Cc1cc(C)c(CNC(=O)c2cc3cc(C4=CCNCC4)cn3c(C(C)N3CCOCC3)c2C)c(=O)[nH]1` (centres unmarked) [Example 45, N-((4,6-dimethyl-2-oxo-1,2-dihydropyridin-3-yl)methyl)-6-methyl-5-(1-morphinolinylethyl)-2-(1,2,3,6-tetrahydropyridin-4-yl)indolizine-7-carboxamide]: the IC50 lay within 1000 to 10000 nM.
`Cc1cc(C)c(CNC(=O)c2cc3cc(C4CCNCC4)cn3c(C(C)N3CCOCC3)c2C)c(=O)[nH]1` (centres unmarked) [Example 46, N-((4,6-dimethyl-2-oxo-1,2-dihydropyridin-3-yl)methyl)-6-methyl-5-(1-morphinolinylethyl)-2-(piperidin-4-yl)indolizine-7-carboxamide]: the IC50 is under 100 nM.
Still for that read-out and setting: the same measure for `Cc1cc(C)c(CNC(=O)c2cc3cc(C4=CCOCC4)cn3c(C(C)N3CCOCC3)c2C)c(=O)[nH]1` (centres unmarked) [Example 47]: 100 to 1000 nM; for `Cc1cc(C)c(CNC(=O)c2cc3cc(-c4cccnc4)cn3c(C(C)N3CCC(N(C)C)CC3)c2C)c(=O)[nH]1` (centres unmarked) [Example 48, N-((4,6-dimethyl-2-oxo-1,2-dihydropyridin-3-yl)methyl)-6-methyl-5-(1-morphinolinylethyl)-2-(tetrahydro-2H-pyran-4-yl)indolizine-7-carboxamide]: under 100 nM; for `Cc1cc(C)c(CNC(=O)c2cc3cc(-c4nccs4)cn3c(C(C)N3CCOCC3)c2C)c(=O)[nH]1` (centres unmarked) [Example 50, N-((4,6-dimethyl-2-oxo-1,2-dihydropyridin-3-yl)methyl)-6-methyl-5-(1-morphinolinylethyl)-2-(thiazol-2-yl)indolizine-7-carboxamide]: under 100 nM.
The same measure, in the same setting: with `Cc1cc(C)c(CNC(=O)c2cc3cc(-c4cn(C)cn4)cn3c(C(C)N3CCOCC3)c2C)c(=O)[nH]1` (centres unmarked) [Example 51, N-((4,6-dimethyl-2-oxo-1,2-dihydropyridin-3-yl)methyl)-6-methyl-5-(1-morphinolinylethyl)-2-(pyridin-2-yl)indolizine-7-carboxamide] the figure was under 100 nM; with `Cc1cc(C)c(CNC(=O)c2cc3c(Br)ccn3c(C(C)N3CCOCC3)c2C)c(=O)[nH]1` (centres unmarked) [Example 53, N-((4,6-dimethyl-2-oxo-1,2-dihydropyridin-3-yl)methyl)-6-methyl-5-(1-morphinolinylethyl)-2-(4,5,6,7-tetrahydrothiazolo[5,4-c]pyridin-2-yl)indolizine-7-carboxamide], under 100 nM.
Take `Cc1cc(C)c(CNC(=O)c2cc3c(Br)ccn3c(C(C)N3CCOCC3)c2C)c(=O)[nH]1` (centres unmarked) [Example 54, 1-bromo-N-((4,6-dimethyl-2-oxo-1,2-dihydropyridin-3-yl)methyl)-6-methyl-5-(1-morpholinylethyl)indolizine-7-carboxamide]: the IC50 was under 100 nM.

Source of the values: patent US10968215B2 (SHANGHAI HAIHE PHARMACEUTICAL CO., LTD., priority 2016, dated 2021).
